Data published in PMC11191095, “QSAR Reveals Decreased Lipophilicity of Polar Residues Determines the Selectivity of Antimicrobial Peptide Activity” (ACS Omega, 2024).
“And” between values parts separate entries of the source, which are not always exact repeats. Equal values may be shown once. Where a SMILES comes first, the peptide text is derived from it.

What was measured:
K. pneumoniae M6 = assay: microbe, parasite or virus in culture; format: cell-based, Klebsiella pneumoniae; details: M6, 20 h
Method in brief: (§1)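 Peptides 128→2 μg/mL, 2-fold series; inoculum ~5 × 10^5 CFU/mL from overnight culture (OD600 0.01, mixed 1:1). MHB non-cation-adjusted for bacteria, RPMI 1640 + 2% glucose for fungi. 37 °C, 20 h, OD600. MIC50/MIC90 at 50%/90% inhibition; n ≥ 3.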

K. pneumoniae NCTC 13368 = assay: microbe, parasite or virus in culture; format: cell-based, Klebsiella pneumoniae; details: NCTC 13368, 20 h
Method in brief: as §1

P. aeruginosa NCTC 13437 = assay: microbe, parasite or virus in culture; format: cell-based, Pseudomonas aeruginosa; details: NCTC 13437, 20 h
Method in brief: as §1

C. tropicalis NCPF 8760 = assay: microbe, parasite or virus in culture; format: cell-based; details: NCPF 8760, 20 h
Method in brief: as §1

C. albicans NCPF 3281 = assay: microbe, parasite or virus in culture; format: cell-based; details: NCPF 3281, 20 h
Method in brief: as §1

C. glabrata NCPF 8018 = assay: microbe, parasite or virus in culture; format: cell-based; details: NCPF 8018, 20 h
Method in brief: as §1

C. krusei NCPF 3876 = assay: microbe, parasite or virus in culture; format: cell-based; details: NCPF 3876, 20 h
Method in brief: as §1

[1] = tested on: C. parapsilosis NCPF 3209; assay: microbe, parasite or virus in culture; format: cell-based; details: NCPF 3209, 20 h
Method in brief: as §1

HaCat cell line = assay: In vitro HaCat cytotoxicity (MTT); format: cell-based, human; details: 21 h exposure, OD570, relative to untreated control
Experimental: The HaCat cell line (Cellonex, South Africa) was cultured in Dulbecco’s Modified Eagle Medium (DMEM) supplemented with 10% heat-inactivated fetal calf serum (FCS) and 1% antibiotic-antimycotic (Abs) and maintained at 5–10% CO2, 37 °C, 95% humidity. For cytotoxicity screening, 5.56 × 10^4 cells/mL were plated in a 96-well plate. After 24 h incubation, the cells are initially exposed to each peptide at a concentration of 256 μg/mL or 0.1% Triton-X-100 as the control for 21 h. If cytotoxicity was observed, at a level of significance of p < 0.0001 compared with the untreated control after 21 h, a dose-response assay was undertaken. Cell viability was determined by adding 10% 3-(4,5-dimethyl-2-thiazolyl)-2,5-diphenyl-2H-tetrazolium bromide (MTT) (1 mg/mL), to each well and after a further 3 h incubation the media was discarded, and the formazan crystals dissolved by adding 25% DMSO in ethanol. The absorbance was measured at OD570 by using the FLUOstar Omega multidetection microplate reader (BMG Labtech). Percentage cell viability was calculated relative to the untreated control. The LC50 was defined as the concentration of AMP treatment that results in 50% lethality of HaCat cells and was determined from the dose-response curves.

C. auris TDG 1912 = assay: microbe, parasite or virus in culture; format: cell-based, Candida auris; details: TDG 1912, 20 h
Method in brief: as §1

[2] = tested on: S. aureus (MSSA) ATCC 9144; assay: microbe, parasite or virus in culture; format: cell-based, Staphylococcus aureus; details: ATCC 9144, 20 h
Method in brief: as §1

[3] = tested on: S. aureus (MRSA) NCTC 13616; assay: microbe, parasite or virus in culture; format: cell-based, Staphylococcus aureus; details: NCTC 13616, 20 h
Method in brief: as §1

S. aureus (MRSA) USA300 = assay: microbe, parasite or virus in culture; format: cell-based, Staphylococcus aureus; details: USA300, 20 h
Method in brief: as §1

E. coli NCTC 12923 = assay: microbe, parasite or virus in culture; format: cell-based, Escherichia coli; details: NCTC 12923, 20 h
Method in brief: as §1

E. coli LEC001 = assay: microbe, parasite or virus in culture; format: cell-based, Escherichia coli; details: LEC001, 20 h
Method in brief: as §1

A. baumannii AYE = assay: microbe, parasite or virus in culture; format: cell-based, Acinetobacter baumannii; details: AYE, 20 h
Method in brief: as §1

A. baumannii ATCC 17978 = assay: microbe, parasite or virus in culture; format: cell-based, Acinetobacter baumannii; details: ATCC 17978, 20 h
Method in brief: as §1

human erythrocytes = assay: In vitro hemolytic activity; format: cell-based; details: 1 h
Experimental: Potential erythrocyte hemolysis was tested by incubating serial dilutions of the AMPs in PBS with freshly collected erythrocytes at a ratio of 1:1 in 96-well polypropylene V-shape plates for 1 h at 37 °C. Control wells were treated with 0.1% Triton-X-100 to ensure complete lysis or PBS-only to represent no lysis. The erythrocytes were collected by centrifugation and the OD550 of the supernatant was measured using a plate reader. The percentage hemolysis was calculated as [drawing 1] 1 where Apeptide is the absorbance value of erythrocytes exposed to a known peptide concentration, Agrowth control is the absorbance of erythrocytes exposed to 0.1% Triton-X-100 and Ablank is the absorbance of erythrocytes exposed to the PBS. The concentrations at which a peptide caused 10% (HC10) and 50% (HC50) hemolysis was determined from the dose response curves.

| SMILES | Modal MIC (K. pneumoniae M6) [µM] | Modal MIC50 (C. tropicalis NCPF 8760) [µM] | Modal MIC90 (C. tropicalis NCPF 8760) [µM] | Modal MIC50 (C. albicans NCPF 3281) [µM] | Modal MIC90 (C. albicans NCPF 3281) [µM] | Modal MIC50 (C. glabrata NCPF 8018) [µM] | Modal MIC90 (C. glabrata NCPF 8018) [µM] | Modal MIC50 (C. krusei NCPF 3876) [µM] | Modal MIC90 (C. krusei NCPF 3876) [µM] | Modal MIC50 [1] [µM] | Modal MIC90 [1] [µM] | Modal MIC50 (C. auris TDG 1912) [µM] | Modal MIC90 (C. auris TDG 1912) [µM] | Modal MIC [2] [µM] | Modal MIC (E. coli NCTC 12923) [µM] | Modal MIC (E. coli LEC001) [µM] | Modal MIC (A. baumannii ATCC 17978) [µM] | further results |
| --- | --- | --- | --- | --- | --- | --- | --- | --- | --- | --- | --- | --- | --- | --- | --- | --- | --- | --- |
| CC[C@H](C)[C@H](NC(=O)[C@H](CCCCN)NC(=O)[C@H](CC(C)C)NC(=O)[C@H](C)NC(=O)[C@H](C)NC(=O)[C@H](CCCCN)NC(=O)[C@H](CC(C)C)NC(=O)[C@H](C)NC(=O)[C@H](CCCCN)NC(=O)CNC(=O)[C@H](CC(C)C)NC(=O)[C@H](Cc1ccccc1)NC(=O)[C@H](CO)NC(=O)CNC(=O)[C@H](Cc1ccccc1)NC(=O)CN)C(=O)NCC(=O)N[C@@H](C)C(=O)N[C@@H](CC(N)=O)C(=O)N[C@H](C(=O)N[C@@H](CC(C)C)C(=O)NCC(=O)NCC(=O)N[C@@H](C)C(=O)N1CCC[C@H]1C(=O)N[C@@H](CCC(N)=O)C(=O)N[C@@H](CCC(N)=O)C(=O)O)C(C)C [CPF-P3] (H-GFGSFLGKALKAALKIGANVLGGAPQQ-OH) | 11.8 | 2.9 | 5.8 | > 47 | > 47 | > 47 | > 47 | 23.5 | 23.5 | > 47 | > 47 | > 47 | > 47 | 1.5 | 2.9 | 2.9 | 1.5 | Modal MIC (K. pneumoniae NCTC 13368): 11.8 µM; Modal MIC (P. aeruginosa NCTC 13437): 23.5 µM; % HaCat cell death at initial screening (256μg/mL) ± SD (HaCat cell line): 39.9 ±12.3% and 39.9%; Modal MIC [3]: 1.5 µM; Modal MIC (S. aureus (MRSA) USA300): 2.9 µM; Modal MIC (A. baumannii AYE): 2.9 µM |
| CSCC[C@H](NC(=O)[C@H](CCSC)NC(=O)[C@H](CCCCN)NC(=O)CNC(=O)[C@@H](NC(=O)[C@@H](NC(=O)[C@H](CCCCN)NC(=O)[C@H](CC(C)C)NC(=O)CNC(=O)[C@H](Cc1ccccc1)NC(=O)[C@H](CCCCN)NC(=O)[C@H](Cc1ccccc1)NC(=O)[C@H](C)NC(=O)[C@H](CCCCN)NC(=O)CNC(=O)[C@H](CC(C)C)NC(=O)[C@H](CC(C)C)NC(=O)[C@H](CO)NC(=O)CNC(=O)[C@H](CC(C)C)NC(=O)CN)[C@@H](C)O)C(C)C)C(=O)NCC(=O)NCC(=O)N[C@@H](C)C(=O)N1CCC[C@H]1C(=O)N[C@@H](CCCNC(=N)N)C(=O)N[C@@H](CCC(=O)O)C(=O)N[C@@H](CCC(N)=O)C(=O)O [CPF-MW1] (H-GLGSLLGKAFKFGLKTVGKMMGGAPREQ-OH) | 5.4 | 21.6 | 21.6 | > 43.1 | > 43.1 | > 43.1 | > 43.1 | 10.8 | 10.8 | > 43.1 | > 43.1 | > 43.1 | > 43.1 | 1.4 | 2.7 | 2.7 | 1.4 | HC10 (concentration causing 10% hemolysis) (human erythrocytes; human erythrocytes in PBS, 37 °C, OD550, from dose response curves): 214 µg/mL; % hemolysis (human erythrocytes; red cells of human, 256 μg/mL): more than 10% |
